From patent US20250154149A1, “PHARMACEUTICAL COMPOSITION AND METHOD FOR PREPARING ACTIVE INGREDIENT COMPOUND THEREOF” (Betta Pharmaceuticals Co., Ltd., priority 2022, published 2025)
pEC50, pIC50: −log10 of the molar value.

What was measured:
[1] = Physicochemical stability test of the crystal form A; conditions: influencing factors (40° C., 60° C., 92.5% RH, 75% RH, 4500Lx), accelerated test, long-term test
Method: Referring to the requirements of “9001 Guidelines for Stability Test of APIs and Pharmaceutical Preparations” in the Chinese Pharmacopoeia, the stability test was conducted on the crystal form A of the compound represented by Formula I, and the specific test conditions are shown in Table 10.

[2] = Pressure stability of the crystal form A; format: physicochemical; conditions: pressure conditions of 150 kg and 230 kg
[3] = tested on: NCI-H226 (NF2 expression-deficient) human lung squamous cell carcinoma xenograft; assay: In vivo efficacy in subcutaneous NCI-H226 xenograft model; conditions: QD, oral, day 45, NCI-H226 xenograft in BALB/c nude mice
Method: In vivo pharmacodynamics and efficacy studies of the compound represented by Formula I were performed in a subcutaneous NCI-H226 (NF2 expression-deficient) human lung squamous cell carcinoma xenograft model in BALB/c nude mice.
BALB/c nude female mice (6 weeks to 7 weeks) were inoculated subcutaneously with 1×10^7 NCI-H226 tumor cells on the right side of each. The inoculated cells were resuspended in a mixture solution of 0.1 mL of PBS and matrix gel Matrigel (PBS: Matrigel=1:1). Administration treatment was started in groups when the average tumor size reached about 100 mm^3 to 200 mm^3. From the date of grouping, the mice were orally administered the crystal form A of the compound represented by Formula I (solvent: 10% DMSO+10% Solutol (KollipHor HS15)+80% physiological saline) once a day for a total of 45 days (QD×45 days). Animals were regularly monitored for changes in body weight as an indicator of compound safety. Tumors were measured twice weekly using a caliper, and the volume was expressed in mm^3 using the formula “V=(L×W^2)/2”, where V is the tumor volume, L is the length of the tumor (the longest tumor dimension) and W is the width of the tumor (the longest tumor dimension perpendicular to L). Compound inhibitory activity was assessed by tumor growth inhibition TGI (%). […]

[4] = Hygroscopicity test (DVS); format: physicochemical
[5] = Pharmacokinetics in plasma of mice after oral administration; format: in vivo; conditions: female, BALB/c, mouse, oral (gavage, clear solution), single dose 5 mg/kg
Method: Adult BALB/c female mice (6 weeks to 7 weeks) were received a single administration of the compound represented by Formula I containing 10% to 20% DMSO, 10% Solutol (KollipHor HS15) and 80% to 70% physiological saline as excipient. Mice (n=3) were administered orally (gavage, clear solution) at a dose of 5 mg/kg. Blood was collected after oral administration at the following points of time: 15 min, 30 min, 1 h, 2 h, 4 b, 7 h, and 24 h. About 0.1 mL of whole blood was collected from the retro-orbital venous plexus and placed in a test tube containing EDTA anticoagulant. Samples were centrifuged at 4° C. and 4000 rpm for 10 min. Plasma was transferred to a centrifugal tube and stored at −20° C. before analysis. The concentration of test compound in plasma samples was analyzed by liquid chromatography-tandem mass spectrometry (LC-MS/MS). Plasma concentration-time data from individual animals were analyzed using software Sciex Analyst. A non-compartmental model was introduced in the concentration analysis, and pharmacokinetic parameters of the test compound were calculated using software WinNonlin (version 4.1; pHarsight).

[6] = tested on: YAP/TAZ-TEAD transcription complex; assay: CTGF detection (ELISA method) in NCI-H2052 cells; format: cell-based, human; conditions: NCI-H2052 cells (NF2 mutation), 24 hours incubation, CTGF in culture supernatant by ELISA; read-out: EC50 value (CTGF concentration response curve)
Method: The detection of CTGF expression level may assess the activity of the YAP/TAZ-TEAD transcription complex. CTGF expression level was quantitatively detected using a human SimpleStep ELISA® kit (Abcam, ab261851).
NCI-H2052 cells (purchased from ATCC, NF2 mutation) were cultured in RPMI 1640 complete medium (containing 10% FBS, 1% penicillin-streptomycin solution and I mM sodium pyruvate). The day before compound treatment, cultured cells were washed with PBS, digested with trypsin, and then collected by centrifugation. The supernatant was removed, and the cells were resuspended in fresh complete medium. Cells were counted and inoculated in 96-well plates at a density of 6500 cells/well. […]
The Human CTGF ELISA Kit uses an affinity labeled capture antibody and a reporter gene coupled detection antibody to immunocapture the sample analytes in the solution. […] 50 μL of standard or cell supernatant sample to be detected were added to the wells of the detection plate. […] Finally, the OD value at 450 nm of each well was read on a multifunctional microplate reader. The concentrations of the target CTGF protein in the samples were determined by standard curve.
The inhibitory activity of the compound of the present application on the transcription regulatory function of TEAD-YAP/TAZ was assessed by the CTGF concentration response curve of the compound. […]

NCI-H226 cells = assay: Cell proliferation inhibitory activity detection (CTG detection); format: cell-based; conditions: Homo sapiens; NCI-H226 cells (NF2 expression-deficient), 144 h, CellTiter-Glo; read-out: IC50 value (inhibition of cell proliferation)
Method: The inhibition of the compound on cell proliferation was detected using CellTiter-Glo® Luminescent Cell Viability Assay Kit (Promega Company). NCI-H226 cells (purchased from ATCC, NF2 expression-deficient) were cultured in RPMI 1640 complete medium (containing 10% FBS, 1% penicillin-streptomycin solution and 1 mM sodium pyruvate). • a) The day before compound treatment, cultured cells were washed with PBS, digested with trypsin, and then collected by centrifugation. The supernatant was removed and the cells were resuspended in fresh RPMI 1640 complete medium. […] Finally, the luminescence signal value (RLU) of each well was read on a multifunctional microplate reader PE En Vision®.
Inhibition rate (IR) of the detected compound: IR (%)=(1−(RLU compound−RLU blank control)/(RLU solvent control−RLU blank control))*100%. The inhibition rates of the compounds at different concentrations were calculated in Excel, then software GraphPad Prism was used to generate inhibition curves, and the relevant parameters were calculated, including the minimum inhibition rate Bottom. the maximum inhibition rate Top and IC50. […]

| Structure (SMILES) | Change in crystal form, characteristics and content compared with day 0 [1] | Crystal form after pressing [2] | TGI (%) ([3]; 10 mg/kg) | TGI (%) ([3]; 50 mg/kg) | Crystal form after the DVS test (XRPD) ([4]; after DVS test, XRPD detection) | Hygroscopicity (DVS) ([4]; dynamic vapor sorption analyzer) | AUC(0-t) [5] | Cmax [5] | pEC50 [6] | pIC50 (NCI-H226 cells) |
| --- | --- | --- | --- | --- | --- | --- | --- | --- | --- | --- |
| C=C(F)C(=O)N1CC(n2c(=O)n(-c3ccc(C(F)(F)F)cc3)c3nccnc32)C1 [1-[1-(2-fluoroacryloyl)azetidin-3-yl]-3-(4-trifluoromethylphenyl)-1,3-dihydro-2H-imidazo[4,5-b]pyrazin-2-one] | no significant change | the crystal form was not changed | 109% | 111% | no change in the crystal form | no hygroscopicity |  |  |  |  |
| C=C(F)C(=O)N1CC(n2c(=O)n(-c3ccc(C(F)(F)F)cc3)c3nccnc32)C1 [compound represented by Formula I, 1-[1-(2-fluoroacryloyl)azetidin-3-yl]-3-(4-trifluoromethylphenyl)-1,3-dihydro-2H-imidazo[4,5-b]pyrazin-2-one] |  |  |  |  |  |  | 17200 ng·h/mL | 1970 ng/mL | 8.70 | 8.15 |
